{"source": "paper PMC5218480", "about": "(PLoS ONE, 2017)", "test_system": "MV-4-11 cells", "test": "Gene expression microarray analysis (Affymetrix PrimeView) and GSEA", "assay_type": "cell-based, human", "parameters": "RFU PODN (11730768_x_at) / Fold change /veh PODN (11730768_x_at) / RFU LINC00158 (11744669_a_at) / Fold change /veh LINC00158 (11744669_a_at) / RFU DUSP10 (11751237_a_at) / Fold change /veh DUSP10 (11751237_a_at) / RFU ID3 (11757404_x_at) / Fold change /veh ID3 (11757404_x_at) / RFU PLEKHG5 (11737974_s_at) / Fold change /veh PLEKHG5 (11737974_s_at) / RFU LRRC4B (11730491_at) / Fold change /veh LRRC4B (11730491_at) / RFU GIMAP4 (11747438_a_at) / Fold change /veh GIMAP4 (11747438_a_at) / RFU KRT8 (11758183_x_at) / Fold change /veh KRT8 (11758183_x_at) / RFU CNN1 (11734310_a_at) / Fold change /veh CNN1 (11734310_a_at) / RFU VPS37D (11726825_at) / Fold change /veh VPS37D (11726825_at) / RFU C10orf10 (11716522_x_at) / Fold change /veh C10orf10 (11716522_x_at) / RFU KIR2DL2 /// KIR2DL4 /// KIR2DL5A /// KIR2DL5B /// KIR2DS1 /// KIR2DS2 /// KIR2DS3 /// KIR2DS4 /// KIR3DL3 /// KIR3DL3 /// KIR3DS1 (11738374_at) / Fold change /veh KIR2DL2 /// KIR2DL4 /// KIR2DL5A /// KIR2DL5B /// KIR2DS1 /// KIR2DS2 /// KIR2DS3 /// KIR2DS4 /// KIR3DL3 /// KIR3DL3 /// KIR3DS1 (11738374_at) / RFU C1QL1 (11718748_at) / Fold change /veh C1QL1 (11718748_at) / RFU TMPRSS4 (11747572_a_at) / Fold change /veh TMPRSS4 (11747572_a_at) / RFU HAMP (11756126_x_at) / Fold change /veh HAMP (11756126_x_at) / RFU RNFT2 (11725882_a_at) / Fold change /veh RNFT2 (11725882_a_at) / RFU NR4A2 (11747474_a_at) / Fold change /veh NR4A2 (11747474_a_at) / RFU ABCC12 (11746883_a_at) / Fold change /veh ABCC12 (11746883_a_at) / RFU TMEM136 (11760407_x_at) / Fold change /veh TMEM136 (11760407_x_at) / RFU CLDN22 /// WWC2 (11732394_at) / Fold change /veh CLDN22 /// WWC2 (11732394_at) / RFU HLA-DPB1 (11760878_x_at) / Fold change /veh HLA-DPB1 (11760878_x_at) / RFU SPINT1 (11716480_a_at) / Fold change /veh SPINT1 (11716480_a_at) / RFU GAP43 (11754022_s_at) / Fold change /veh GAP43 (11754022_s_at) / RFU A4GNT (11735810_at) / Fold change /veh A4GNT (11735810_at) / RFU PRB3 (11715151_x_at) / Fold change /veh PRB3 (11715151_x_at) / RFU TUBB4B (11761932_at) / Fold change /veh TUBB4B (11761932_at) / RFU CAPN14 (11732068_a_at) / Fold change /veh CAPN14 (11732068_a_at) / RFU TMCC2 (11721928_a_at) / Fold change /veh TMCC2 (11721928_a_at) / RFU IRGQ (11745062_a_at) / Fold change /veh IRGQ (11745062_a_at) / RFU FAM174B (11720279_a_at) / Fold change /veh FAM174B (11720279_a_at) / RFU TMPRSS4 (11748680_a_at) / Fold change /veh TMPRSS4 (11748680_a_at) / RFU FAM212B (11763350_a_at) / Fold change /veh FAM212B (11763350_a_at) / RFU PLEKHG5 (11743358_a_at) / Fold change /veh PLEKHG5 (11743358_a_at) / RFU ZSCAN30 (11745921_a_at) / Fold change /veh ZSCAN30 (11745921_a_at) / RFU CMKLR1 (11741424_a_at) / Fold change /veh CMKLR1 (11741424_a_at) / RFU LOC101060620 /// MAPK8IP1 (11723275_at) / Fold change /veh LOC101060620 /// MAPK8IP1 (11723275_at) / RFU SPTSSB (11747773_x_at) / Fold change /veh SPTSSB (11747773_x_at) / RFU PRSS12 (11739890_at) / Fold change /veh PRSS12 (11739890_at) / RFU BIN1 (11741810_x_at) / Fold change /veh BIN1 (11741810_x_at) / RFU WNT11 (11732464_a_at) / Fold change /veh WNT11 (11732464_a_at) / RFU C10orf10 (11716521_a_at) / Fold change /veh C10orf10 (11716521_a_at) / RFU C5orf56 (11738089_at) / Fold change /veh C5orf56 (11738089_at) / RFU CYB561 (11721691_x_at) / Fold change /veh CYB561 (11721691_x_at) / RFU ANKRD19P (11752326_a_at) / Fold change /veh ANKRD19P (11752326_a_at) / RFU OR2T12 /// OR2T33 /// OR2T8 (11738714_s_at) / Fold change /veh OR2T12 /// OR2T33 /// OR2T8 (11738714_s_at) / RFU VCAN (11748164_a_at) / Fold change /veh VCAN (11748164_a_at) / RFU JSRP1 (11732532_at) / Fold change /veh JSRP1 (11732532_at) / RFU KRTAP10-11 (11738290_x_at) / Fold change /veh KRTAP10-11 (11738290_x_at) / RFU MYO3A (11730013_a_at) / Fold change /veh MYO3A (11730013_a_at) / RFU EBF3 (11725865_a_at) / Fold change /veh EBF3 (11725865_a_at) / RFU CAMK2N1 (11719241_x_at) / Fold change /veh CAMK2N1 (11719241_x_at) / RFU C5orf56 (11738088_a_at) / Fold change /veh C5orf56 (11738088_a_at) / RFU OLFML3 (11715873_a_at) / Fold change /veh OLFML3 (11715873_a_at) / RFU LOC100653217 /// NTM (11731650_a_at) / Fold change /veh LOC100653217 /// NTM (11731650_a_at) / RFU MAPK11 (11762145_a_at) / Fold change /veh MAPK11 (11762145_a_at) / RFU FIZ1 (11724087_x_at) / Fold change /veh FIZ1 (11724087_x_at) / RFU OASL (11726364_x_at) / Fold change /veh OASL (11726364_x_at) / RFU SOX15 (11748057_x_at) / Fold change /veh SOX15 (11748057_x_at) / RFU CD79A (11719716_a_at) / Fold change /veh CD79A (11719716_a_at) / RFU HIST1H1D (11736915_at) / Fold change /veh HIST1H1D (11736915_at) / RFU CASKIN2 (11723855_a_at) / Fold change /veh CASKIN2 (11723855_a_at) / RFU LOC730098 (11760151_x_at) / Fold change /veh LOC730098 (11760151_x_at) / RFU OR4N2 (11742367_at) / Fold change /veh OR4N2 (11742367_at) / RFU PRRT2 (11749266_a_at) / Fold change /veh PRRT2 (11749266_a_at) / RFU SNX32 (11753110_a_at) / Fold change /veh SNX32 (11753110_a_at) / RFU CDHR5 (11726645_a_at) / Fold change /veh CDHR5 (11726645_a_at) / RFU RCAN1 (11760418_a_at) / Fold change /veh RCAN1 (11760418_a_at) / RFU FAM167A (11723789_a_at) / Fold change /veh FAM167A (11723789_a_at) / RFU FAM26E (11764081_at) / Fold change /veh FAM26E (11764081_at) / RFU ISYNA1 (11749810_s_at) / Fold change /veh ISYNA1 (11749810_s_at) / RFU ACY1 (11761880_at) / Fold change /veh ACY1 (11761880_at) / RFU 11764098_at / Fold change /veh 11764098_at / RFU SAMD14 (11745864_x_at) / Fold change /veh SAMD14 (11745864_x_at) / RFU NPB (11741838_a_at) / Fold change /veh NPB (11741838_a_at) / RFU TMPRSS6 (11731388_a_at) / Fold change /veh TMPRSS6 (11731388_a_at) / RFU KRTAP10-2 (11738614_at) / Fold change /veh KRTAP10-2 (11738614_at) / RFU ARHGAP8 /// PRR5-ARHGAP8 (11727945_x_at) / Fold change /veh ARHGAP8 /// PRR5-ARHGAP8 (11727945_x_at) / RFU KRTAP5-7 /// NADSYN1 (11734609_at) / Fold change /veh KRTAP5-7 /// NADSYN1 (11734609_at) / RFU RASL12 (11751679_a_at) / Fold change /veh RASL12 (11751679_a_at) / RFU CDKN2B (11736163_a_at) / Fold change /veh CDKN2B (11736163_a_at) / RFU PRF1 (11729649_at) / Fold change /veh PRF1 (11729649_at) / RFU, ZNF638 /// ZNF638-IT1 / Fold change vs veh, ZNF638 /// ZNF638-IT1 / RFU, PANK3 / Fold change vs veh, PANK3 / RFU, SH3YL1 / Fold change vs veh, SH3YL1 / RFU, ZEB2 / Fold change vs veh, ZEB2 / RFU, NRIP1 / Fold change vs veh, NRIP1 / RFU, PTTG1IP / Fold change vs veh, PTTG1IP / RFU, CAPN2 / Fold change vs veh, CAPN2 / RFU, MED14 / Fold change vs veh, MED14 / RFU, SNORA58 / Fold change vs veh, SNORA58 / RFU, C1orf63 / Fold change vs veh, C1orf63 / RFU, LRRFIP1 / Fold change vs veh, LRRFIP1 / RFU, NDUFAF7 / Fold change vs veh, NDUFAF7 / RFU, SLC12A2 / Fold change vs veh, SLC12A2 / RFU, IBTK / Fold change vs veh, IBTK / RFU, ESF1 / Fold change vs veh, ESF1 / Fold change vs veh, TMEM50B / RFU, TAOK1 / Fold change vs veh, TAOK1 / RFU, ACBD3 / Fold change vs veh, ACBD3 / RFU, TMA16 / Fold change vs veh, TMA16 / RFU, RWDD3 / Fold change vs veh, RWDD3 / RFU, BCAT1 / Fold change vs veh, BCAT1 / RFU, EDEM3 / Fold change vs veh, EDEM3 / RFU, TMEM33 / Fold change vs veh, TMEM33 / RFU, WDR75 / Fold change vs veh, WDR75 / RFU, AHCTF1 / Fold change vs veh, AHCTF1 / RFU, TFRC / Fold change vs veh, TFRC / RFU, ZDHHC17 / Fold change vs veh, ZDHHC17 / RFU, NOM1 / Fold change vs veh, NOM1 / RFU, ARL8B / Fold change vs veh, ARL8B / RFU, ZBTB11 / Fold change vs veh, ZBTB11 / RFU, TAMM41 / Fold change vs veh, TAMM41 / RFU, KIAA1704 /// LOC100996395 / Fold change vs veh, KIAA1704 /// LOC100996395 / RFU, ING1 / Fold change vs veh, ING1 / RFU, TRMT61B / Fold change vs veh, TRMT61B / RFU, FUBP3 / Fold change vs veh, FUBP3 / RFU, TP53 / Fold change vs veh, TP53 / RFU, TNKS2 / Fold change vs veh, TNKS2 / RFU, ZFP14 / Fold change vs veh, ZFP14 / RFU, ACTR2 / Fold change vs veh, ACTR2 / RFU, PPP3R1 / Fold change vs veh, PPP3R1 / RFU, PIK3R1 / Fold change vs veh, PIK3R1 / RFU, HNRNPA1 / Fold change vs veh, HNRNPA1 / RFU, RNF170 / Fold change vs veh, RNF170 / RFU, ZNF28 / Fold change vs veh, ZNF28 / RFU, RNGTT / Fold change vs veh, RNGTT / RFU, OGT / Fold change vs veh, OGT / RFU, BRD1 / Fold change vs veh, BRD1 / RFU, MARS / Fold change vs veh, MARS / RFU, ZNF655 / Fold change vs veh, ZNF655 / RFU, FAHD1 / Fold change vs veh, FAHD1 / RFU, BDP1 / Fold change vs veh, BDP1 / RFU, LRRCC1 / Fold change vs veh, LRRCC1 / RFU, ARID1A / Fold change vs veh, ARID1A / RFU, ZNF146 / Fold change vs veh, ZNF146 / RFU, ZNF330 / Fold change vs veh, ZNF330 / RFU, GPN3 / Fold change vs veh, GPN3 / RFU, C9orf123 / Fold change vs veh, C9orf123 / RFU, N4BP2L2 / Fold change vs veh, N4BP2L2 / RFU, ARFIP1 / Fold change vs veh, ARFIP1 / RFU, FAM179B / Fold change vs veh, FAM179B / RFU, BCL10 / Fold change vs veh, BCL10 / RFU, UHRF1BP1L / Fold change vs veh, UHRF1BP1L / RFU, BET1 / Fold change vs veh, BET1 / RFU, CNOT2 / Fold change vs veh, CNOT2 / RFU, ZNF268 / Fold change vs veh, ZNF268 / Fold change vs veh, ZNF507 / RFU, DGCR2 / Fold change vs veh, DGCR2 / RFU, WDSUB1 / Fold change vs veh, WDSUB1 / Fold change vs veh, HSP90B1 /// MIR3652 / RFU, ADSS / Fold change vs veh, ADSS / RFU, GK / Fold change vs veh, GK / RFU, ZNF148 / Fold change vs veh, ZNF148 / RFU, TAF9 / Fold change vs veh, TAF9 / RFU, SLC1A5 / Fold change vs veh, SLC1A5 / RFU, SLMO2 / Fold change vs veh, SLMO2 / RFU, ABCC4 / Fold change vs veh, ABCC4 / RFU, LOC101060439 /// RAP1B / Fold change vs veh, LOC101060439 /// RAP1B / RFU, RFX7 / Fold change vs veh, RFX7 / RFU, GTPBP10 / Fold change vs veh, GTPBP10 / RFU, CNEP1R1 / Fold change vs veh, CNEP1R1 / RFU, BIVM-ERCC5 /// ERCC5 / Fold change vs veh, BIVM-ERCC5 /// ERCC5 / RFU, ILF3 / Fold change vs veh, ILF3 / RFU 11762660_at / Fold change /veh 11762660_at / RFU VCAN (11757783_s_at) / Fold change /veh VCAN (11757783_s_at) / RFU DDX43 (11728927_at) / Fold change /veh DDX43 (11728927_at) / RFU KRT8 (11758188_x_at) / Fold change /veh KRT8 (11758188_x_at) / RFU NKD1 (11759106_at) / Fold change /veh NKD1 (11759106_at) / RFU SRD5A1 (11742802_a_at) / Fold change /veh SRD5A1 (11742802_a_at) / RFU TPSAB1 /// TPSB2 (11721975_s_at) / Fold change /veh TPSAB1 /// TPSB2 (11721975_s_at) / RFU GSTM3 (11746129_a_at) / Fold change /veh GSTM3 (11746129_a_at) / RFU IL23R (11737362_x_at) / Fold change /veh IL23R (11737362_x_at) / RFU TMEM51 (11727254_a_at) / Fold change /veh TMEM51 (11727254_a_at) / RFU PIWIL2 (11732686_x_at) / Fold change /veh PIWIL2 (11732686_x_at) / RFU ORM1 (11744905_x_at) / Fold change /veh ORM1 (11744905_x_at) / RFU CCDC152 (11743942_at) / Fold change /veh CCDC152 (11743942_at) / RFU ECM1 (11717891_a_at) / Fold change /veh ECM1 (11717891_a_at) / RFU IL23R (11748794_a_at) / Fold change /veh IL23R (11748794_a_at) / RFU TNFAIP8L3 (11732012_x_at) / Fold change /veh TNFAIP8L3 (11732012_x_at) / RFU MBOAT4 (11741988_at) / Fold change /veh MBOAT4 (11741988_at) / RFU 11764193_at / Fold change /veh 11764193_at / RFU TMEM53 (11763286_at) / Fold change /veh TMEM53 (11763286_at) / RFU MAGEB2 (11727129_at) / Fold change /veh MAGEB2 (11727129_at) / RFU TMEM200A (11744735_a_at) / Fold change /veh TMEM200A (11744735_a_at) / RFU CCDC152 (11751479_a_at) / Fold change /veh CCDC152 (11751479_a_at) / RFU FAM211A (11726209_a_at) / Fold change /veh FAM211A (11726209_a_at) / RFU RGS16 (11746705_a_at) / Fold change /veh RGS16 (11746705_a_at) / RFU VCAN (11755009_s_at) / Fold change /veh VCAN (11755009_s_at) / RFU RHOB (11743442_s_at) / Fold change /veh RHOB (11743442_s_at) / RFU RGS16 (11720943_a_at) / Fold change /veh RGS16 (11720943_a_at) / RFU RGS16 (11720944_at) / Fold change /veh RGS16 (11720944_at) / RFU, VPS4B / Fold change vs veh, VPS4B / RFU, CREB1 / Fold change vs veh, CREB1 / RFU, DNAJC13 / Fold change vs veh, DNAJC13 / RFU, GNAQ / Fold change vs veh, GNAQ / RFU, CDK5R1 / Fold change vs veh, CDK5R1 / RFU, ZRANB3 / Fold change vs veh, ZRANB3 / RFU, CUL4A / Fold change vs veh, CUL4A / RFU, CCNY / Fold change vs veh, CCNY / RFU, UFL1 / Fold change vs veh, UFL1 / RFU, COG3 / Fold change vs veh, COG3 / RFU, DIAPH2 / Fold change vs veh, DIAPH2 / RFU, SKA2 / Fold change vs veh, SKA2 / RFU, AFF3 / Fold change vs veh, AFF3 / RFU, LMF1 / Fold change vs veh, LMF1 / RFU, IPO11 / Fold change vs veh, IPO11 / RFU, DFFB / Fold change vs veh, DFFB / RFU, FOXP1 / Fold change vs veh, FOXP1 / RFU, CARD8 / Fold change vs veh, CARD8 / RFU, STRN3 / Fold change vs veh, STRN3 / RFU, ADK / Fold change vs veh, ADK / RFU, RASSF2 / Fold change vs veh, RASSF2 / RFU, WIPF1 / Fold change vs veh, WIPF1 / RFU, LARP1B / Fold change vs veh, LARP1B / RFU, RASA1 / Fold change vs veh, RASA1 / RFU, RB1 / Fold change vs veh, RB1 / RFU, PPFIA1 / Fold change vs veh, PPFIA1 / RFU, MAT2A / Fold change vs veh, MAT2A / RFU, CCT5 / Fold change vs veh, CCT5 / RFU, WDR92 / Fold change vs veh, WDR92 / RFU, CUX1 / Fold change vs veh, CUX1 / RFU, TTC7A / Fold change vs veh, TTC7A / RFU, TMEM135 / Fold change vs veh, TMEM135 / RFU, DEPTOR / Fold change vs veh, DEPTOR / RFU, CPM / Fold change vs veh, CPM / RFU, DNAJB6 / Fold change vs veh, DNAJB6 / RFU, CACNA2D3 / Fold change vs veh, CACNA2D3 / RFU, DTX4 / Fold change vs veh, DTX4 / RFU, TFCP2 / Fold change vs veh, TFCP2 / RFU, GMCL1 /// GMCL1P1 / Fold change vs veh, GMCL1 /// GMCL1P1 / RFU, AEBP2 / Fold change vs veh, AEBP2 / RFU, SNHG1 /// SNORD22 /// SNORD25 /// SNORD26 /// SNORD27 /// SNORD28 /// SNORD29 /// SNORD31 / Fold change vs veh, SNHG1 /// SNORD22 /// SNORD25 /// SNORD26 /// SNORD27 /// SNORD28 /// SNORD29 /// SNORD31 / Fold change (Aza/veh), C12orf56 (ProbeSet 11735607_a_at) / Fold change (ACY-1035/veh), C12orf56 (ProbeSet 11735607_a_at) / Fold change (Aza/veh), FGFR1OP (ProbeSet 11751329_s_at) / Fold change (ACY-1035/veh), FGFR1OP (ProbeSet 11751329_s_at) / Fold change (Aza/veh), VPS36 (ProbeSet 11739960_a_at) / Fold change (ACY-1035/veh), VPS36 (ProbeSet 11739960_a_at) / RFU SYPL1 (11715823_x_at) / Fold change /veh SYPL1 (11715823_x_at) / RFU IGFBP7 (11715501_s_at) / Fold change /veh IGFBP7 (11715501_s_at) / RFU REEP3 (11722064_at) / Fold change /veh REEP3 (11722064_at) / RFU IGLL1 (11728026_x_at) / Fold change /veh IGLL1 (11728026_x_at): dose or concentration left out as unconfirmed", "conditions": "MV-4-11 cells, 48 hours"}
{"smiles": "Nc1ncn([C@@H]2O[C@H](CO)[C@@H](O)[C@H]2O)c(=O)n1", "note": "[azacitidine]", "values": [{"measurement": "Fold change /veh RGS16 (11746705_a_at)", "result": 1.56}]}
